We go through 79 molecules from the RepoRT retention time repository.

This data set is described as follows: RP, Waters CORTECS UPLC C18, 100 × 2.1 mm, 1.6 µm, 40 °C, 0.4 mL/min, estimated dead time 0.55 min; A: water + 0.1% formic acid, pH 3; B: acetonitrile + 0.1% formic acid, pH 3; gradient (min/%B) 0/5 1.12/5 6.41/99.5 10.01/99.5. The note with it: stereoisomer not certain.
Take `CCN(CC)C(=O)C(Cl)=C(C)OP(=O)(OC)OC` (mixture of isomers) [Phospamidon (Mix of isomers)]: the LC retention time was 3.69 min.

`CC1(O)CCOC(=O)C1` (racemic) [(±)-Mevalonolactone]: the LC retention time is 0.963 min.

On to `O=C(O)C(O)Cc1c[nH]c2ccccc12` (racemic) [DL-Indole-3-lactic acid], for which the LC retention time is 3.13 min.

As to `Cn1cnc2c(ncn2C2OC(CO)C(O)C2O)c1=N` (centres undefined) [1-METHYLADENOSINE], the LC retention time is 0.965 min.

For `O=C(O)c1cccc(O)c1O` [2,3-DIHYDROXYBENZOATE], the LC retention time was 1.66 min.

`O=C(O)c1cccnc1C(=O)O` [2,3-Pyridinedicarboxylic acid]: the LC retention time was 0.763 min.

Consider `O=C(O)c1ccc(C(=O)O)o1` [2,5-Furandicarboxylic acid], for which the LC retention time was 1.08 min.

Regarding `CC(CCC(=O)O)C(=O)O` (centres undefined) [2-METHYLGLUTARATE], the LC retention time is 2.47 min.

`O=C(O)c1ccc2ccccc2n1` [2-QUINOLINECARBOXYLATE]: the LC retention time was 2.4 min.

In the case of `O=C(O)c1ccc(O)c(O)c1` [3,4-DIHYDROXYBENZOATE], the LC retention time was 1.66 min.

For `N[C@@H](Cc1cc(I)c(Oc2ccc(O)cc2)c(I)c1)C(=O)O` [3,5-DIIODO-L-THYRONINE], the LC retention time was 3.35 min.

`N[C@@H](Cc1cc(I)c(O)c(I)c1)C(=O)O` [3,5-DIIODO-L-TYROSINE]: the LC retention time is 2.69 min.

Consider `O=C(O)CCc1ccccc1O` [3-(2-HYDROXYPHENYL)PROPANOATE], for which the LC retention time was 5.17 min.

In the case of `Nc1cc(C(=O)O)ccc1O` [3-AMINO-4-HYDROXYBENZOATE], the LC retention time was 0.722 min.

In the case of `Nc1cc(O)cc(C(=O)O)c1` [3-AMINO-5-HYDROXYBENZOATE], the LC retention time was 0.722 min.

Consider `Nc1c(O)cccc1C(=O)O` [3-HYDROXYANTHRANILATE], for which the LC retention time is 0.722 min.

Turning to `O=Cc1cccc(O)c1` [3-HYDROXYBENZALDEHYDE], the LC retention time is 2.13 min.

Take `O=C(O)Cc1c[nH]c2ccccc12` [3-Indoleacetic acid]: the LC retention time was 3.4 min.

Consider `O=C(O)C=Cc1c[nH]c2ccccc12` [3-Indoleacrylic acid], for which the LC retention time was 3.58 min.

As to `CC1C(=O)Nc2ccccc21` (centres undefined) [3-METHYL-2-OXINDOLE], the LC retention time was 3.39 min.

Regarding `CC(C)=CC(=O)NCC(=O)O` [3-Methylcrotonyl Glycine], the LC retention time was 2.29 min.

For `CC(CC(=O)[O-])CC(=O)OC(CC(=O)O)C[N+](C)(C)C` (centres undefined) [3-Methylglutarylcarnitine], the LC retention time was 2.25 min.

Turning to `N[C@@H](Cc1ccc(O)c([N+](=O)[O-])c1)C(=O)O` [3-NITRO-L-TYROSINE], the LC retention time was 1.5 min.

Consider `C[C@H](CCC(=O)O)[C@H]1CC[C@H]2[C@@H]3CC[C@@H]4CC(=O)CC[C@]4(C)[C@H]3CC[C@]12C` [3-Oxo-5β-cholanoic Acid], for which the LC retention time is 6.05 min.

On to `CC(=O)NCCCC(=O)O` [4-ACETAMIDOBUTANOATE], for which the LC retention time is 0.817 min.

Regarding `O=Cc1ccc(O)cc1` [4-HYDROXYBENZALDEHYDE], the LC retention time was 2.13 min.

On to `Cc1ncc(CO)c(C(=O)O)c1O` [4-PYRIDOXATE], for which the LC retention time is 0.768 min.

With `Cc1ncc2c(c1O)C(=O)OC2` [4-Pyridoxolactone], the LC retention time was 0.792 min.

Consider `O=C(O)c1ccnc2ccccc12` [4-QUINOLINECARBOXYLATE], for which the LC retention time is 0.782 min.

As to `CC1OC(n2cnc3c(N)ncnc32)C(O)C1O` (centres undefined) [5'-DEOXYADENOSINE], the LC retention time was 0.931 min.

With `Cc1cc2nc[nH]c2cc1C` [5,6 DIMETHYLBENZIMIDAZOLE], the LC retention time is 2.64 min.

Regarding `CC(C)CCCC(C)C1CCC2C3C(=O)C=C4CC(O)CCC4(C)C3CCC12C` (stereo not drawn) [5-Cholesten-3β-ol-7-one], the LC retention time was 7.56 min.

For `O=C(O)Cc1c[nH]c2ccc(O)cc12` [5-HYDROXYINDOLEACETATE], the LC retention time is 2.47 min.

`CC(CCCC(C)C1CCC2C3C(O)CC4=CC(=O)CCC4(C)C3CCC12C)C(=O)O` (centres undefined) [7-Hydroxy-3-oxo-Cholest-4-en-26-oic Acid]: the LC retention time was 5.53 min.

For `CC(C)CCCC(C)C1CCC2C3=CC=C4CC(O)CCC4(C)C3CCC21C` (centres undefined) [7-dehydrocholesterol], the LC retention time was 7.48 min.

On to `CC(C)CCC[C@@H](C)[C@H]1CC[C@H]2[C@@H]3[C@H](O)CC4=CC(=O)CC[C@]4(C)[C@H]3CC[C@]12C` [7α-Hydroxy-4-cholesten-3-one], for which the LC retention time was 7.4 min.

In the case of `C=CCCCCCCCC(=O)O` [9-Decenoic acid], the LC retention time is 4.62 min.

Take `C[C@H](CCC(=O)O)[C@H]1CC[C@H]2[C@@H]3[C@H](O)C[C@@H]4C[C@H](O)CC[C@]4(C)[C@H]3CC(=O)[C@]12C` [(3ALPHA,5BETA,7ALPHA)-3,7-DIHYDROXY-12-OXOCHOLAN-24-OIC ACID]: the LC retention time was 4.24 min.

For the molecule `O=C(O)CCCCC(=O)O` [ADIPATE], the LC retention time is 2.47 min.

Take `Cc1c(C)c2c(c(C)c1O)CCC(C)(CCCC(C)CCCC(C)CCCC(C)C)O2` (stereo not drawn) [ALPHA-TOCOPHEROL]: the LC retention time is 5.92 min.

As to `O=CC(O)C(O)C(O)CO` (centres undefined) [ARABINOSE], the LC retention time is 0.798 min.

With `OC1COC(O)C(O)C1O` (centres undefined) [ARABINOSE], the LC retention time was 0.798 min.

Turning to `CC(=NC#N)N(C)Cc1ccc(Cl)nc1` [Acetamiprid], the LC retention time was 3.33 min.

Regarding `C[N+](C)(C)CC(CC(=O)[O-])OC(=O)CCCCC(=O)[O-].[H+]` [Adipoyl-L-carnitine], the LC retention time is 1.3 min.

Turning to `CCOC(=O)CCN(Cc1ccccc1)SN(C)C(=O)ON=C(C)SC` [Alanycarb], the LC retention time was 5.25 min.

In the case of `O=C(O)CCCCCCCC(O)C(O)CCCCCCO` (centres undefined) [Aleuritic acid], the LC retention time is 3.52 min.

For the molecule `COc1cc(OC)nc(NC(=O)NS(=O)(=O)N(C)S(C)(=O)=O)n1` [Amidosulfuron], the LC retention time is 4.16 min.

On to `CNC(=O)Oc1ccc(N(C)C)c(C)c1` [Aminocarb], for which the LC retention time is 1.6 min.

Regarding `CCCCCC=CCC=CCC=CCC=CCCCC(=O)OC(CC(=O)[O-])C[N+](C)(C)C` [Arachidonyl-L-carnitine], the LC retention time is 5.35 min.

As for `Clc1ccc(C2(Cn3cncn3)OCCO2)c(Cl)c1` [Azaconazole], the LC retention time was 4.32 min.

In the case of `COP(=O)(OC)SCn1c(=O)oc2cc(Cl)cnc21` [Azamethiphos], the LC retention time was 3.91 min.

With `COC=C(C(=O)OC)c1ccccc1Oc1cc(Oc2ccccc2C#N)ncn1` [Azoxystrobin], the LC retention time was 4.91 min.

In the case of `O=C(O)c1ccccc1` [BENZOATE], the LC retention time is 2.13 min.

Consider `O=C(O)CCCCC1SCC2NC(=O)NC21` (centres undefined) [BIOTIN], for which the LC retention time was 2.7 min.

Turning to `COC(=O)C(C)N(C(=O)Cc1ccccc1)c1c(C)cccc1C` (centres undefined) [Benalaxyl], the LC retention time was 5.46 min.

On to `CCOC(=O)CCN(SN(C)C(=O)Oc1cccc2c1OC(C)(C)C2)C(C)C` [Benfuracarb], for which the LC retention time is 6.01 min.

Take `COc1ccc(-c2ccccc2)cc1NNC(=O)OC(C)C` [Bifenazate]: the LC retention time was 5.09 min.

On to `COc1cc(OC)nc(Oc2cccc(Oc3nc(OC)cc(OC)n3)c2C(=O)[O-])n1.[Na+]` [Bispyribac sodium salt], for which the LC retention time is 4.63 min.

For the molecule `CC(C)(C)C(O)C(Oc1ccc(-c2ccccc2)cc1)n1cncn1` (centres undefined) [Bitertanol], the LC retention time is 5.14 min.

On to `O=C(Nc1ccccc1-c1ccc(Cl)cc1)c1cccnc1Cl` [Boscalid], for which the LC retention time is 4.99 min.

For `CCCCc1c(C)nc(NCC)nc1OS(=O)(=O)N(C)C` [Bupirimate], the LC retention time is 3.29 min.

As to `CC(C)N1C(=O)N(c2ccccc2)CSC1=NC(C)(C)C` [Buprofezin], the LC retention time is 5.45 min.

On to `CCCC[n+]1cccc(S(=O)(=O)[O-])c1` [C4-APS], for which the LC retention time is 1.11 min.

In the case of `CCCCC[n+]1cccc(S(=O)(=O)[O-])c1` [C5-APS], the LC retention time is 2.31 min.

`CCCCCC[n+]1cccc(S(=O)(=O)[O-])c1` [C6-APS]: the LC retention time is 2.9 min.

Turning to `CCCCCCC[n+]1cccc(S(=O)(=O)[O-])c1` [C7-APS], the LC retention time was 3.32 min.

Turning to `CCCCCCCC[n+]1cccc(S(=O)(=O)[O-])c1` [C8-APS], the LC retention time is 3.67 min.

As to `CCCCCCCCC[n+]1cccc(S(=O)(=O)[O-])c1` [C9-APS], the LC retention time is 3.99 min.

For `CCCCCCCCCC[n+]1cccc(S(=O)(=O)[O-])c1` [C10-APS], the LC retention time was 4.29 min.

For `CCCCCCCCCCC[n+]1cccc(S(=O)(=O)[O-])c1` [C11-APS], the LC retention time is 4.59 min.

Regarding `CCCCCCCCCCCC[n+]1cccc(S(=O)(=O)[O-])c1` [C12-APS], the LC retention time is 4.89 min.

Regarding `CCCCCCCCCCCCC[n+]1cccc(S(=O)(=O)[O-])c1` [C13-APS], the LC retention time is 5.19 min.

As to `CCCCCCCCCCCCCC[n+]1cccc(S(=O)(=O)[O-])c1` [C14-APS], the LC retention time is 5.49 min.

Take `CCCCCCCCCCCCCCC[n+]1cccc(S(=O)(=O)[O-])c1` [C15-APS]: the LC retention time was 5.78 min.

In the case of `CCCCCCCCCCCCCCCC[n+]1cccc(S(=O)(=O)[O-])c1` [C16-APS], the LC retention time was 6.07 min.

With `CCCCCCCCCCCCCCCCC[n+]1cccc(S(=O)(=O)[O-])c1` [C17-APS], the LC retention time was 6.34 min.

Turning to `CCCCCCCCCCCCCCCCCC[n+]1cccc(S(=O)(=O)[O-])c1` [C18-APS], the LC retention time was 6.58 min.

As for `CCCCCCCCCCCCCCCCCCC[n+]1cccc(S(=O)(=O)[O-])c1` [C19-APS], the LC retention time was 6.81 min.

As to `CCCCCCCCCCCCCCCCCCCC[n+]1cccc(S(=O)(=O)[O-])c1` [C20-APS], the LC retention time was 7 min.
